In article PMC12093383, “Protoporphyrin IX-Derived Ruthenium(II) Complexes for Photodynamic Therapy in Gastric Cancer Cells” (Inorganic Chemistry, 2025):
Like-named read-outs stand apart in the source and are kept apart here.

What was measured:
[1] = Fluorescence quantum yield; format: physicochemical; settings: DMSO, ligands excited at 503 nm, ruthenium complexes at 573 nm, relative to verteporfin
Procedure: Emission spectra were measured in DMSO. The free ligands were excited at 503 nm, while the ruthenium complexes were excited at 573 nm. For the calculation of fluorescence quantum yield, verteporfin (Φf = 0.0085) was used as a reference.[46] In all metal-free compounds, an intense emission band at approximately 630–670 nm and a small band at approximately 700–750 nm were observed, assigned to Q (0–0) and Q (1–0) transitions, respectively.[48] […] A similar behavior has been observed in palladium(II) and nickel(II) metaloporphyrins, where the fluorescence was quenched due to electron or energy transfer.[49]
The fluorescence quantum yields were determined using verteporfin in DMSO as a reference (Φf = 0.0085).[46],[89] The free ligands were excited at 503 nm, and the ruthenium complexes at 573 nm. The quantum yield was calculated following eq 1.[90],[91] [drawing 1] 1 Where ST and X are standard and analyte, respectively, Φf is the fluorescence quantum yield, Grad is the gradient from the area of integration fluorescence intensity vs absorbance, and ηX and ηST are the refractive index of the solvent used to measure the fluorescence spectrum of the analyte and the standard, respectively.

[2] = Shake-flask partition coefficient, 1-octanol/PBS; format: physicochemical; settings: average of three independent experiments at 27 °C
From the text: The n-octanol/water partition coefficient (log Po/w) is a well-established parameter that helps to predict the biological activity of drugs and other biologically active compounds.[56] The so-called “shake-flask” method was adopted to determine the partition coefficient using 1-octanol and PBS (phosphate-buffered saline) as solvents.[57] All the porphyrin derivatives presented low lipophilicity values. At the same time, the chlorin compounds were much more lipophilic as expected due to the reduction of one of the pyrrole rings and the formation of the new ring in the chlorin.
The partition coefficient (log Po/PBS) of each compound was determined experimentally by the “shake-flask” method at room temperature following reported methods.[57],[96] A mixture of 1-octanol and PBS in equal amounts was shaken for 24 h, after which the phases were allowed to separate for 24 h. Then, a 1 × 10^–5 M solution of each compound is prepared in 1-octanol/PBS (1:1), and the mixture is left to stir for 24 h. After 24 h of stirring, the mixture is left for 24 h to separate the two phases. Finally, the concentration of each compound in the two phases is determined by UV–vis spectroscopy. logP was determined by the following eq 3.[97] [drawing 3] 3 Where Aap is the absorbance after partition, and Abp is the absorbance before partition.

AGS gastric cancer cells = test: MTT survival assay, dark or white-light irradiation; format: cell-based, human; settings: for IC50: 8 h incubation, MTT after 48 h; for PI (phototoxicity index): IC50 dark/light ratio
Procedure: To assess the anticancer potential of compounds, the cytotoxicity was evaluated on the gastric cancer cell line AGS. The cells were treated in the dark for 8 h with increasing concentrations of the different compounds (Table 2). Cisplatin was used as a positive cytotoxic and clinically used drug control, and verteporfin (VP) or protoporphyrin-IX (PpIX) were used as positive PDT controls. Cells were then irradiated for 15 min with white light or kept in the dark and further cultivated for 48h in the dark. An MTT test was then performed to evaluate the impact of the different treatments on cell survival. […] The lower cytotoxicity of Ru-2 is most likely due to its low stability in biological media, as determined by stability tests in PBS/DMSO.
The human gastric adenocarcinoma (AGS) cell line was acquired from ATCC (Manassa, VA). AGS cells were cultured in RPMI 1640 medium (Roswell Park Memorial Institute) containing 10% fetal bovine serum (FBS) at 37 °C in a humidified atmosphere of 95% air and 5% CO2.
The antiproliferative activity of cancer cells was determined by the 3-(4,5-dimethylthiazol-2-yl)-2,5-diphenyltetrazolium bromide (MTT) assay. Cells were seeded at 10.000 cells per well (200 μL) in Cellstar 96-well plates (Greiner Bio-One) and further incubated for 24 h. Cells were treated with each compound at different concentrations for 8 h in the dark. After this time, the medium was removed, fresh medium was added, and cells were kept in the dark or irradiated with white light for 15 min. Subsequently, the plates were incubated in the dark for an additional 48 h, and the MTT assay was performed as previously described in the literature.[34] Measurements were performed at 550 nm with the Tristar2Multimode Reader (Berthold Technologies).

LC3B = test: Western blot of LC3B-I/II in AGS cells; format: cell-based, human; settings: IC50 concentration 4 h, white light 15 min, 24 h in the dark
From the text: (§1) The therapeutic effects of PDT treatment on cancer cells are thought to be mainly related to ROS production, which are highly reactive and cytotoxic species that can induce cell death by apoptosis.[62] It has also been shown that ruthenium compounds can induce different cell death pathways.[63],[64] For these reasons, we initially analyzed by Western blot the expression of cleaved caspase 3 and PARP, which are two well-known markers for programmed cell death apoptosis.[65]−[70] […] The cells were then further cultivated in the dark for 24 h. […] Then, the protein expression of CHOP, a key component of the endoplasmic reticulum (ER) stress-mediated apoptosis pathway and known to be induced by ruthenium compounds, was evaluated.[71],[72] […] To investigate this, the expression and conversion of LC3B–I to LC3B–II was analyzed by Western blot (Figure 11).
(§2) Figure 11 Effects of photoactivation of 1, Ru-1, 3B, and Ru-3B on protein expression on different cell death markers in AGS gastric cancer cells. […] Protein extraction was performed, and expression of the different markers was determined by Western blot. […]
(§3) Cells were then lysed in lysis buffer (50 mM Tris–HCl pH 6.7, NaCl 150 mM, NP40 1%). Total protein concentration was determined using Bradford assay and adjusted to the same quantity (50 μg) for each experiment. […] Protein bands were quantified using ImageJ software.[99] […]

COX2 = test: Western blot of COX2 in AGS cells; format: cell-based, human; settings: IC50 concentration 4 h; for COX2 expression in the dark: kept in the dark
Procedure: (§4) Figure 12 Effects of photoactivation of 1, Ru-1, 3B and Ru-3B on protein expression of ferroptosis and inflammation markers in AGS gastric cancer cells. […] (a) Expression of the different markers was determined by Western blot. GAPDH was used as a loading control. Representative Western blot of three independent experiments. ctl = control, untreated cells. Graphs represent the quantification of three independent experiments of GPX4 (b) and COX2 (c) expression, compared to not-treated AGS cells (ctl) and normalized to GAPDH expression. Bars above the colons indicate the comparison of dark versus light for each compound. The dark and light results of each compound were compared to those of the respective untreated control condition (ctl). Statistical analysis: 2-way Anova *<0.05, **<0.01, ***<0.001, ns = not-significant.
COX2 is known for its central role in inflammation and prostaglandins (PGs) production. In normal cells, COX2 expression is almost absent, whereas in cancer cells, it is frequently overexpressed.[84] Importantly, it has been shown that in cancers, COX2 is not only a mediator of inflammation but could also be a mediator of oxidative stress and inhibition of apoptosis, as well as cancer cell proliferation.[85]
Cells were then lysed in lysis buffer (50 mM Tris–HCl pH 6.7, NaCl 150 mM, NP40 1%). Total protein concentration was determined using Bradford assay and adjusted to the same quantity (50 μg) for each experiment. A total of 30 μg of proteins were resolved by 6–15% SDS-PAGE (depending on protein molecular weight) and transferred to nitrocellulose blotting membranes according to standard methods. Membranes were blocked with blocking buffer (containing 5% milk powder or 1% BSA) for 1 h at room temperature, then washed three times with TBST or PBST (containing 0.1% Tween-20) and incubated with primary antibodies at 4 °C overnight. The following day, the membranes were washed thrice with […]. […] Protein bands were quantified using ImageJ software.[99] […]

GPX4 = test: Western blot of GPX4 in AGS cells; format: cell-based, human; settings: IC50 concentration 4 h, white light 15 min, 24 h in the dark
Procedure: Ferroptosis, another form of nonapoptotic cell death, can promote inflammation and is triggered by iron-catalyzed lipid peroxidation via Fenton-type reactions, where the main ROS responsible for lipid damage are hydroxyl radical and superoxide radical.[81],[82] Glutathione peroxidase (GPX4) can suppress lipid peroxidation and protect cells from ferroptosis.[83] To investigate the impact of the different compounds on GPX4 expression, AGS cells were treated as described above, and then GPX4 expression was analyzed by Western blot (Figure 12a).
as §4, with “Bars above the colons indicate the comparison of dark versus light for each compound. The dark and light results of each compound were compared to those of the respective untreated control condition (ctl). Statistical analysis: 2-way Anova *<0.05, **<0.01, ***<0.001, ns = not-significant.” left out
as §3

[3] = test system: cleaved caspase 3 and PARP; test: Western blot of apoptosis markers in AGS cells; format: cell-based, human; settings: IC50 concentration 4 h, white light 15 min, 24 h in the dark
From the text: as §1, §2, §3

[4] = Homo sapiens, AGS, kept in dark, N = 3, read-out: IC50 dark
[5] = Homo sapiens, AGS, white light 15 min, N = 3, read-out: IC50 light

Φf luminescence quantum yield [1] [%] | log PO/PBS [2] | Compound | IC50 (AGS gastric cancer cells; [4]) [µM] | IC50 (AGS gastric cancer cells; [5]) [µM] | LC3B-I/II expression (LC3B) | IC50 (AGS gastric cancer cells; white light 15 min, N = 3, read-out: IC50 light) [µM] | COX2 expression in the dark (COX2) | PI (phototoxicity index) (AGS gastric cancer cells) | GPX4 expression (GPX4) | IC50 (AGS gastric cancer cells; kept in dark, N = 3, read-out: IC50 dark) [µM] | cleavage of caspase 3 and PARP [3] | COX2 expression upon light irradiation (COX2; white light 15 min, 24 h in the dark, vs untreated)
1.0 | 1.368 ± 0.042 | C=Cc1c(C)c2cc3nc(cc4[nH]c(cc5nc(cc1[nH]2)C(C)=C5CCC(=O)OCc1ccccc1)c(CCC(=O)OCc1ccccc1)c4C)C1(C)C3=CCC(C(=O)OC)=C1C(=O)OC (stereo not drawn) [4A] | > 100 | 2.5 ± 0.231 | – | – | – | >40 | – | – | – | –
1.0 | 1.682 ± 0.176 | C=Cc1c(C)c2cc3nc(cc4[nH]c(cc5nc(cc1[nH]2)C1(C)C5=CCC(C(=O)OC)=C1C(=O)OC)c(C)c4CCC(=O)OCc1ccccc1)C(CCC(=O)OCc1ccccc1)=C3C (stereo not drawn) [4B] | > 100 | 2.8 ± 0.265 | – | – | – | >36 | – | – | – | –

More lines, now with the values behind:

Compound | Φf luminescence quantum yield [1] [%] | log PO/PBS [2] | IC50 (AGS gastric cancer cells; [4]) [µM] | IC50 (AGS gastric cancer cells; [5]) [µM] | LC3B-I/II expression (LC3B) | IC50 (AGS gastric cancer cells; white light 15 min, N = 3, read-out: IC50 light) [µM] | COX2 expression in the dark (COX2) | PI (phototoxicity index) (AGS gastric cancer cells) | GPX4 expression (GPX4) | IC50 (AGS gastric cancer cells; kept in dark, N = 3, read-out: IC50 dark) [µM] | cleavage of caspase 3 and PARP [3] | COX2 expression upon light irradiation (COX2; white light 15 min, 24 h in the dark, vs untreated)
C=Cc1c(C)c2cc3nc(cc4[nH]c(cc5nc(cc1[nH]2)C(C)=C5CCC(=O)OC)c(CCC(=O)OC)c4C)C1(C)C3=CCC(C(=O)OC)=C1C(=O)OC (stereo not drawn) [3A] | 1.2 | 1.478 ± 0.083 | > 100 | 0.1 ± 0.06 | – | – | – | – | – | – | – | –
C=Cc1c(C)c2cc3nc(cc4[nH]c(cc5nc(cc1[nH]2)C1(C)C5=CCC(C(=O)OC)=C1C(=O)OC)c(C)c4CCC(=O)OC)C(CCC(=O)OC)=C3C (stereo not drawn) [3B] | 1.2 | 1.661 ± 0.088 | > 100 | 0.18 | marked induction of LC3B–I/II expression | 0.2 ± 0.021 | reduction in COX2 expression in the dark | – | – | – | – | –
C=CC1=C(C)c2cc3[nH]c(cc4nc(cc5[nH]c(cc1n2)c(C)c5CCC(=O)O)C(CCC(=O)O)=C4C)c(C)c3C=C [PpIX, protoporphyrin IX] | – | – | > 100 | 0.5 | – | – | reduction in COX2 expression in the dark | >200 | decrease in GPX4 expression | – | – | –
N.N.[Cl][Pt][Cl] [cisplatin, reference compound] | – | – | – | – | – | – | – | – | – | 29 | – | –
C=CC1=C(C)c2cc3[nH]c(cc4nc(cc5[nH]c(cc1n2)c(C)c5CCC(=O)OC)C(CCC(=O)OC)=C4C)c(C)c3C=C [compound 1] | 0.80 | 0.957 ± 0.056 | > 100 | 1.7 ± 0.184 | – | – | – | > 17 | – | – | as efficient as VP | significantly reduce COX2 expression
C=CC1=C(C)c2cc3[nH]c(cc4nc(cc5[nH]c(cc1n2)c(C)c5CCC(=O)OCc1ccccc1)C(CCC(=O)OCc1ccccc1)=C4C)c(C)c3C=C [compound 2] | 0.80 | 1.063 ± 0.142 | > 100 | 2.6 ± 0.1 | – | – | – | > 18 | – | – | – | –
